Five sequences from ChEMBL document CHEMBL1909046, “DrugMatrix in vitro pharmacology data” can be followed below.

Assay [1] is described as follows: DRUGMATRIX: Calcium Channel Type L, Dihydropyridine radioligand binding (ligand: [3H] Nitrendipine). In kind it is cell membranes, Rattus norvegicus, Wistar, Cerebral cortex, Membrane. The conditions noted are these: Not Active = under 50% inhibition at 10 µM.
The target of the next assay is Nitric oxide synthase 1 (Rattus norvegicus, UniProt P29476). It is filed as tissue-based, Cerebellum. Further: in other assays of this panel Not Active means under 50% inhibition at 10 µM.
Assay [2] has as its target T1, Muscarinic acetylcholine receptor M4 (Homo sapiens, UniProt P08173). Further: in other assays of this panel Not Active means under 50% inhibition at 10 µM.
T1 sequence (P08173 whole entry): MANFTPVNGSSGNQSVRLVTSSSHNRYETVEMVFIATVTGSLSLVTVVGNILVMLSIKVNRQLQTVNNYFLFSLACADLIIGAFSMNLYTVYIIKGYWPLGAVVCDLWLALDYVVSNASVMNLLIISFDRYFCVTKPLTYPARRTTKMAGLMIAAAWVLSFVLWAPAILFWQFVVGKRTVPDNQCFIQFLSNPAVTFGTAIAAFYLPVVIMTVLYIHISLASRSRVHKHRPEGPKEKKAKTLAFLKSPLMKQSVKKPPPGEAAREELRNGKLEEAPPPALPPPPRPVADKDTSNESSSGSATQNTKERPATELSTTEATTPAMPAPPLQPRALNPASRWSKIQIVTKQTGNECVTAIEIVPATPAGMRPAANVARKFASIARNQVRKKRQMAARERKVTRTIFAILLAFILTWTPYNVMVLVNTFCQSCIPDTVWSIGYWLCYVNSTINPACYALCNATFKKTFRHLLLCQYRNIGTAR
In kind it is cell membranes, CHO-K1, Membrane. To be noted: cho-k1.

Assay [3] in a line: DRUGMATRIX: ATPase, Na+/K+ enzyme inhibition (substrate: ATP). It is filed as tissue-based, Sus scrofa, Heart. The conditions noted are these: Not Active = under 50% inhibition at 10 µM.
For assay [4], the target named is 5-hydroxytryptamine receptor 1B (Rattus norvegicus, UniProt P28564). It is filed as cell membranes, Wistar, Cerebral cortex, Membrane. Further: in other assays of this panel Not Active means under 50% inhibition at 10 µM.
In a further assay the target is T2, Endothelin-1 receptor (Homo sapiens, UniProt P25101). Further: in other assays of this panel Not Active means under 50% inhibition at 10 µM.
T2 sequence (P25101 whole entry): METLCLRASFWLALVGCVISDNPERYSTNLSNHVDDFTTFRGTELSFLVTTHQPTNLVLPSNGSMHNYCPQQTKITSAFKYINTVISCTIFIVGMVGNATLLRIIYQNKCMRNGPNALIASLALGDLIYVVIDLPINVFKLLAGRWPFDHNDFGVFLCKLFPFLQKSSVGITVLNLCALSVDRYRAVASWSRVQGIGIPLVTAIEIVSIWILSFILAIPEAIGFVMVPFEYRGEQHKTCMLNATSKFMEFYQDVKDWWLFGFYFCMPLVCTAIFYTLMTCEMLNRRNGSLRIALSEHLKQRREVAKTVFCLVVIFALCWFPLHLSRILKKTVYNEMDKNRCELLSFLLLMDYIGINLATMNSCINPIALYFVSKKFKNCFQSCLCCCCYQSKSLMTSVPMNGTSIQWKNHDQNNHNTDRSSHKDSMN
It is filed as cell membranes, Membrane. To be noted: cho-k1.

One may read the IC50 as the concentration at which inhibition is half-maximal. For orientation: Ki means the equilibrium dissociation constant of an inhibitor or competing ligand from its target.

Nitric oxide synthase 1, sequence (P29476 whole entry): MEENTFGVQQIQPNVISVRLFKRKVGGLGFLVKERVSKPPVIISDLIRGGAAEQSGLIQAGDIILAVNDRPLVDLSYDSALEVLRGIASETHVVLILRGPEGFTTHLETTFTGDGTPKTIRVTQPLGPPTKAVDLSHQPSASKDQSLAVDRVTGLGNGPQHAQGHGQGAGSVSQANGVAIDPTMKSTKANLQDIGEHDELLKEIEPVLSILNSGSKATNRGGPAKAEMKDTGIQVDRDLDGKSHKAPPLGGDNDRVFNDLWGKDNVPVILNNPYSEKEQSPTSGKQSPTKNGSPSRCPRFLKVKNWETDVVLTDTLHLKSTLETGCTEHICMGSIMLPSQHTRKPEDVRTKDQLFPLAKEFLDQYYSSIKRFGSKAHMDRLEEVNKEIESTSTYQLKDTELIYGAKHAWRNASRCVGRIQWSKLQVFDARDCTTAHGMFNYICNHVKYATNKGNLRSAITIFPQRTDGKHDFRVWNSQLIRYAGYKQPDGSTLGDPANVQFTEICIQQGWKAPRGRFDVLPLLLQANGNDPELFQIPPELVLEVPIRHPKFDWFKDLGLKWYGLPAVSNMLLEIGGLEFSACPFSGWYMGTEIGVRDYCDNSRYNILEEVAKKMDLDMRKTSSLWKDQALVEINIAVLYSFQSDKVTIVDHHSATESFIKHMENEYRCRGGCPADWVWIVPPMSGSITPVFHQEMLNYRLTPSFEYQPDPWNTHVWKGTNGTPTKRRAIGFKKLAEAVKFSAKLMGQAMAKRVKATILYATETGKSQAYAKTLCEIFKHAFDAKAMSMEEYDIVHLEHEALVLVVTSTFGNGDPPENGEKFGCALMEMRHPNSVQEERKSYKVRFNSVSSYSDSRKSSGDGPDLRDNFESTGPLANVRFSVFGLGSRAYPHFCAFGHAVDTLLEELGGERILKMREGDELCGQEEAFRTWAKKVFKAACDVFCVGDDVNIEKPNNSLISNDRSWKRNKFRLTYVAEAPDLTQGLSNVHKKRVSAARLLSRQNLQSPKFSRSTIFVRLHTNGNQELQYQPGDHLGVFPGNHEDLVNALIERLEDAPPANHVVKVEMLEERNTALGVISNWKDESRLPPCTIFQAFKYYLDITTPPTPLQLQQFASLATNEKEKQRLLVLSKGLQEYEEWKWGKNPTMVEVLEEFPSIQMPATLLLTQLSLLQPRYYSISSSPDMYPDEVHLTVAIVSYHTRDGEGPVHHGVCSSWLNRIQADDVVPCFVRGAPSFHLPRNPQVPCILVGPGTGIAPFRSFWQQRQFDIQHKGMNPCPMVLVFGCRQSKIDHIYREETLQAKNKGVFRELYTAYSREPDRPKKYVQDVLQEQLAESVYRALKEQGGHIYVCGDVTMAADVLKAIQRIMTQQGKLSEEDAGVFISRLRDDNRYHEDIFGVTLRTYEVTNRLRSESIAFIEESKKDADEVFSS
5-hydroxytryptamine receptor 1B, sequence (P28564 whole entry): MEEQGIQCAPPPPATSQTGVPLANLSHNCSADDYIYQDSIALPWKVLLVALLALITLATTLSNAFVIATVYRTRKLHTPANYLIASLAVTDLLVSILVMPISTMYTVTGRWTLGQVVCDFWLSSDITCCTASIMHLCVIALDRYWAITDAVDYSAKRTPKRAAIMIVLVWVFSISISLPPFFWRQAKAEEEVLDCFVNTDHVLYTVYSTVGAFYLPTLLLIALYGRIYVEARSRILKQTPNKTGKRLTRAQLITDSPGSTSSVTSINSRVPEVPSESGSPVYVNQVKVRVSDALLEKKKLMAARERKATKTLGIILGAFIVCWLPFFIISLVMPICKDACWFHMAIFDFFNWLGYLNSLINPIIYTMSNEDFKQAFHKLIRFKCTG

As to AURANOFIN, the half-inhibitory concentration (IC50) entry (in assay [1]; against Nitric oxide synthase 1; in assay [2]; in assay [3]; in assay [4]; at Endothelin-1 receptor) was “Not Active” each time. For the same sequence, the inhibition constant (Ki) entry (in assay [1]; at Nitric oxide synthase 1; in assay [2]; in assay [3]; in assay [4]; on Endothelin-1 receptor) was “Not Active” throughout.

For GADOPENTETATE DIMEGLUMINE, the IC50 entry (in assay [1]; on Nitric oxide synthase 1; in assay [2]; in assay [3]; in assay [4]; against Endothelin-1 receptor) was “Not Active” in each case. In addition, the inhibition constant Ki entry (in assay [1]; on Nitric oxide synthase 1; in assay [2]; in assay [3]; in assay [4]; on Endothelin-1 receptor) was “Not Active” each time.

For the sequence GENTAMICIN, the IC50 result (in assay [1]; against Nitric oxide synthase 1; in assay [2]; in assay [3]; in assay [4]; at Endothelin-1 receptor) was “Not Active” throughout. Moreover, the inhibition constant Ki result (in assay [1]; at Nitric oxide synthase 1; in assay [2]; in assay [3]; in assay [4]; at Endothelin-1 receptor) was “Not Active” each time.

Take GRAMICIDIN: the 50% inhibitory concentration (IC50) result in assay [1] is “Not Active”; at Nitric oxide synthase 1 it was “Not Active”; in assay [2] it was “Not Active”; in assay [3] (read-out: IC50) it was 5140 nM; in assay [4], “Not Active”; at Endothelin-1 receptor (read-out: IC50), 2980 nM. Moreover, the Ki entry in assay [1] is “Not Active”; on Nitric oxide synthase 1, “Not Active”; in assay [2] it was “Not Active”; in assay [4] it was “Not Active”; at Endothelin-1 receptor (read-out: Ki) it was 1840 nM.

Turning to NYSTATIN, the IC50 result (in assay [1]; against Nitric oxide synthase 1; in assay [2]; in assay [3]; in assay [4]; at Endothelin-1 receptor) was “Not Active” throughout. The Ki entry (in assay [1]; on Nitric oxide synthase 1; in assay [2]; in assay [3]; in assay [4]; at Endothelin-1 receptor) was “Not Active” throughout.
